Experimental data as given in ChEMBL document CHEMBL1201862, “PubChem BioAssay data set” (2004).
Values joined by “and” are separate entries in the source; they are usually repeats but may differ in a detail not shown here. Identical values can stand only once. Active and inactive are the calls of the source.

Columns and labels:
[1] = molecular target: NACHT, LRR and PYD domains-containing protein 1 (Homo sapiens, UniProt Q9C000); assay: NALP1 inhibitors in yeast, dose response, luminescent (AID 488860); format: functional
Saccharomyces cerevisiae = assay: NALP1 inhibitor project selectivity study, Caspase-1/ASC signal blockade IC50 in S. cerevisiae (AID 488863); format: functional, organism-based
[2] = molecular target: T1, Oxysterols receptor LXR-beta (Homo sapiens, UniProt P55055); format: functional, cell-based;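 note: Cell-based luminescence dose-response assay of agonist activity at LXR, run as a confirmatory counterscreen to a daf-12 agonist screen; HEK293 cells with Gal4-LXR fusion and GAL4-driven luciferase reporter; agonist potency from rising luciferase signal of a Gal4-LXR reporter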
T1 sequence (P55055 whole entry): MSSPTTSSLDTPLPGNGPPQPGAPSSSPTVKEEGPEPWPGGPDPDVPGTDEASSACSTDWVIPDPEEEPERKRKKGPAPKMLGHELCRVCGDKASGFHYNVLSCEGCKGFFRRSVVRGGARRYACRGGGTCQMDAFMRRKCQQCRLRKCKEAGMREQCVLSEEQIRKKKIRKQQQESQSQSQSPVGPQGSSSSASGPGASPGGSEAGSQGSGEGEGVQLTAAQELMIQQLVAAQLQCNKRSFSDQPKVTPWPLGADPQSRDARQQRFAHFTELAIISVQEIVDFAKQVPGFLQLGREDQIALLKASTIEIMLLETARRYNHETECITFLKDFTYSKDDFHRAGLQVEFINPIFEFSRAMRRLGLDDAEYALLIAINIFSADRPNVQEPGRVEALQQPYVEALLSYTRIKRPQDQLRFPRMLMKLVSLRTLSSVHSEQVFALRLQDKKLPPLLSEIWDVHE

[3] = molecular target: T2, Tyrosine-protein phosphatase non-receptor type 7 (Homo sapiens, UniProt P35236); assay: redox-dependent HePTP inhibition, mechanism study, biochemical, fluorescence (AID 2068); format: functional
T2 sequence (P35236 whole entry): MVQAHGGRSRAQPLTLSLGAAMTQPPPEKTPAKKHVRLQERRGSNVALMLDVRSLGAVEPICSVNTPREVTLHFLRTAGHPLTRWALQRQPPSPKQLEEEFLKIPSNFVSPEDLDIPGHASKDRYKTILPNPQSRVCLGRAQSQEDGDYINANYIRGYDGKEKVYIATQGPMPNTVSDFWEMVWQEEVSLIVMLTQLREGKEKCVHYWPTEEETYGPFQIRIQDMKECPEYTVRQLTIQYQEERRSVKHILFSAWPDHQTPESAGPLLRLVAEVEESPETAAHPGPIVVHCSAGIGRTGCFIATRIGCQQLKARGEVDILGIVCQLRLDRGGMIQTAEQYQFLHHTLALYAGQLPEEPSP

[4] = molecular target: T3, Runt-related transcription factor 1/Core-binding factor subunit beta (Homo sapiens, UniProt Q01196+Q13951); assay: inhibitors of RUNX1 Runt–CBFb-SMMHC binding, primary screen, biochemical, FRET, Cerulean-Runt, Venus-CBFb-SMMHC, uHTS (AID 1434); format: protein assay;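 note: partner is the CBFb-SMMHC leukemia fusion protein rather than wild-type CBFb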
T3 sequence (Q01196 whole entry, the tested form may be a part): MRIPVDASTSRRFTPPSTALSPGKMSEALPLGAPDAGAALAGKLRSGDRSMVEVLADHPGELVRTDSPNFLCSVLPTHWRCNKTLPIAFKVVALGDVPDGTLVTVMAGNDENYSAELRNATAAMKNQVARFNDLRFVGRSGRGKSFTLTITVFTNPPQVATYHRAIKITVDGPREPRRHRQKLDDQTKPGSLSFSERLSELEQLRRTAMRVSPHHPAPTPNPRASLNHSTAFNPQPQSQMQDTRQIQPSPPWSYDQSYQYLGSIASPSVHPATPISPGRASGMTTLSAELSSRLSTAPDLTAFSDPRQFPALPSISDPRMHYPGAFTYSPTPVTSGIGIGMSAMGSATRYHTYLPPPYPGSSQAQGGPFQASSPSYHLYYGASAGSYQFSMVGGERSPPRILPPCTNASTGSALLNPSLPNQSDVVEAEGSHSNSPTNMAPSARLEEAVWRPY
T3 sequence (Q13951 whole entry, the tested form may be a part): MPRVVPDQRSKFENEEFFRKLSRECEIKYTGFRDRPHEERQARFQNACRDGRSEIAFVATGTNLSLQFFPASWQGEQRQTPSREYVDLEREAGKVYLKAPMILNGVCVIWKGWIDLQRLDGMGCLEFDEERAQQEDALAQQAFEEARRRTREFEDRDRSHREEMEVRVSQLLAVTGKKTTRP

[5] = molecular target: T3, Runt-related transcription factor 1/Core-binding factor subunit beta; assay: inhibitors of RUNX1 Runt–CBFb-SMMHC binding, biochemical, TR-FRET (AID 1438); format: protein assay
[6] = molecular target: Voltage-dependent T-type calcium channel subunit alpha-1H (Homo sapiens, UniProt O95180); assay: Cav3.2 T-type channel inhibitors, cell-based, synthetic library set 1, calcium flux (AID 493022); format: functional
[7] = molecular target: Type-1 angiotensin II receptor (Homo sapiens, UniProt P30556); assay: AT1 receptor agonists, dose response, selectivity assay for APJ receptor agonist project, cell-based, uHTS hits (AID 488865); format: functional;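 note: beta-arrestin recruitment to AT1 measured by enzyme fragment complementation luminescence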
HEK293 [8] = assay: cells; format: functional, cell-based; conditions: Homo sapiens
HEK293 [9] = assay: cells; format: functional, cell-based; conditions: Homo sapiens; remark: listed apart in the source
[10] = molecular target: T4, Voltage-gated N-type calcium channel alpha-1B subunit/Amyloid beta A4 precursor protein-binding family A member 1 (Homo sapiens, UniProt Q00975+Q02410); format: protein assay
T4 sequence (Q00975 whole entry): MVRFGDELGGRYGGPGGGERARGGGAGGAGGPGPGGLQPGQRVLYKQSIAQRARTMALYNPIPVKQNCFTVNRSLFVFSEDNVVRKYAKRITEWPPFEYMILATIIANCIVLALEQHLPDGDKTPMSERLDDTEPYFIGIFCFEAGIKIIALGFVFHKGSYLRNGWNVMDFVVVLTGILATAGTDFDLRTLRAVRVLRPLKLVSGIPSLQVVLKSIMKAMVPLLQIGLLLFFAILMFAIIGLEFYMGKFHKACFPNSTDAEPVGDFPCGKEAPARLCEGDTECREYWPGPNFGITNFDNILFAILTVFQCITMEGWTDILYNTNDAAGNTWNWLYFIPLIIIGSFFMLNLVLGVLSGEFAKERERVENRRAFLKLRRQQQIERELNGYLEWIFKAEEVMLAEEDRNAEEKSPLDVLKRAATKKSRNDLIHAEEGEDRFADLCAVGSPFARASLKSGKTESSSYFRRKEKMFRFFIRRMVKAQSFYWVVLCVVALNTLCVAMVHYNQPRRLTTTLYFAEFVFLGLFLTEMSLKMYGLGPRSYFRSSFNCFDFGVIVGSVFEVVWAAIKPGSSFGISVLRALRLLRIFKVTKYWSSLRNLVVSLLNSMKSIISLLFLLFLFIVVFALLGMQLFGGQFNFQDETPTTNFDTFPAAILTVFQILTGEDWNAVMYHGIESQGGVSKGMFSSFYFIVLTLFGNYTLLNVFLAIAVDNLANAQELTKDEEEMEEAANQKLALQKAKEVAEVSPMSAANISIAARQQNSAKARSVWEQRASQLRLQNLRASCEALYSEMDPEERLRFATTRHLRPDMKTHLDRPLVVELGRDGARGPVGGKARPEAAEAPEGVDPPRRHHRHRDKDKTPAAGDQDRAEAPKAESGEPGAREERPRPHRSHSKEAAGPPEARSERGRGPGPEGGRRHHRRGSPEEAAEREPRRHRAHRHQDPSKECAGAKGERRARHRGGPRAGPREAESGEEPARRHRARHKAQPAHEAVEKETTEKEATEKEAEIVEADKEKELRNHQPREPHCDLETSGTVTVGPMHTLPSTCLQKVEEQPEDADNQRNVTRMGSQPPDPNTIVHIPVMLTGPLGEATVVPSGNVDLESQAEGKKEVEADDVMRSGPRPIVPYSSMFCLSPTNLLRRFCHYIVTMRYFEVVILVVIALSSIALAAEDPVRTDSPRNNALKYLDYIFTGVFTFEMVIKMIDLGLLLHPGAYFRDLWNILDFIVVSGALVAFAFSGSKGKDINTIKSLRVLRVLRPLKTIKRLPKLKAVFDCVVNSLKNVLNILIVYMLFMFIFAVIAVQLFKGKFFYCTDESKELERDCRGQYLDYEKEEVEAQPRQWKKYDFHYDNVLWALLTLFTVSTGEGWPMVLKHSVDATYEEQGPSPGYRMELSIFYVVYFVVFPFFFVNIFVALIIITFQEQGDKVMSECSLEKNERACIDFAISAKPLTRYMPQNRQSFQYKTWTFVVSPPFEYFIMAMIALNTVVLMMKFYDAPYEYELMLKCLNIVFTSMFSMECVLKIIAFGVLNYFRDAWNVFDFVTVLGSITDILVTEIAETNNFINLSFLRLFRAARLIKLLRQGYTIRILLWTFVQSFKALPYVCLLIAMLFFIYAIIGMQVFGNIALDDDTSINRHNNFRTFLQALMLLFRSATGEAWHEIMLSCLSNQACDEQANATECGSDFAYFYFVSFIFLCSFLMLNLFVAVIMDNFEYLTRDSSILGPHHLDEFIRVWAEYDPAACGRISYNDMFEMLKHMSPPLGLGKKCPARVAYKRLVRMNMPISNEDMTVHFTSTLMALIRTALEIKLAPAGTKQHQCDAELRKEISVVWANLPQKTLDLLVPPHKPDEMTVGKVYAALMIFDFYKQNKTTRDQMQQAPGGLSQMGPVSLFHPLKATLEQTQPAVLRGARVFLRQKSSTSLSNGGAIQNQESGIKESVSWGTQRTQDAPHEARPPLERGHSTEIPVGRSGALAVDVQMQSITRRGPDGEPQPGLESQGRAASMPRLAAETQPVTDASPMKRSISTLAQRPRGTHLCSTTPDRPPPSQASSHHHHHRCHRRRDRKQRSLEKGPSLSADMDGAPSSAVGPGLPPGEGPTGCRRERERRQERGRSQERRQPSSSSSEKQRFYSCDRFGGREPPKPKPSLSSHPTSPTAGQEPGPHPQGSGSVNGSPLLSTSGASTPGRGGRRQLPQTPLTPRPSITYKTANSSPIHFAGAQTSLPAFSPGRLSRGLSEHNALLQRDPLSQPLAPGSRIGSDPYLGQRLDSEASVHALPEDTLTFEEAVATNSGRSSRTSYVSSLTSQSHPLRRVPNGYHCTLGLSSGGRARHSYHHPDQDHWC
T4 sequence (Q02410 whole entry): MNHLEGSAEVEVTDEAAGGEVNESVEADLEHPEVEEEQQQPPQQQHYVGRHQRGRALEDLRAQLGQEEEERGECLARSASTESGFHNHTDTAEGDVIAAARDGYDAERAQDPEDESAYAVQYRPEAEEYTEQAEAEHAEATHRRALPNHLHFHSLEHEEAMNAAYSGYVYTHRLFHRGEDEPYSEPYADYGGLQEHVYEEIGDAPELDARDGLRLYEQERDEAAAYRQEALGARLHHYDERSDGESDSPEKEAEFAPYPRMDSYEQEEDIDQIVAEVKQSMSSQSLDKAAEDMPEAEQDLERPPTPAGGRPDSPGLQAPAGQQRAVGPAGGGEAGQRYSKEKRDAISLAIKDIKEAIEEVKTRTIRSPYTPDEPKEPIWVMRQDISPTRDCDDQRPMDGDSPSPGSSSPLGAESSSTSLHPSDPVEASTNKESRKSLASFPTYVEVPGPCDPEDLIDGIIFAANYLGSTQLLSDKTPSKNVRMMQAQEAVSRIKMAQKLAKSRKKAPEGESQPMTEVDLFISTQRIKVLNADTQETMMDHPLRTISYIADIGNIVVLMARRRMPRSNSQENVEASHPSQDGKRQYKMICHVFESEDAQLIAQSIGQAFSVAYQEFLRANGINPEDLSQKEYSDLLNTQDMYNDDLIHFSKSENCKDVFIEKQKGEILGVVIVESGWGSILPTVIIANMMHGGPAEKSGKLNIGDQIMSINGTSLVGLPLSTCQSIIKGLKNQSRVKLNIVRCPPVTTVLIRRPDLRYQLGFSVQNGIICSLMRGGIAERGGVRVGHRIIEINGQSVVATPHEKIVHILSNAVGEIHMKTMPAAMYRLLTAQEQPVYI

HEK293 [11] = assay: NOD2 signaling inhibitors in MDP-stimulated cells, cell-based, uHTS, luminescence (AID 2001); format: functional; conditions: Homo sapiens
[12] = molecular target: T4, Voltage-gated N-type calcium channel alpha-1B subunit/Amyloid beta A4 precursor protein-binding family A member 1; format: protein assay; remark: listed apart in the source
[13] = molecular target: T5, Carboxy-terminal domain RNA polymerase II polypeptide A small phosphatase 1 (Homo sapiens, UniProt Q9GZU7); assay: inhibitors of CTDSP1, concentration-response testing, biochemical assay, absorbance-based, actives from ultra-high-throughput screening (AID 540297); format: functional
T5 sequence (Q9GZU7 whole entry): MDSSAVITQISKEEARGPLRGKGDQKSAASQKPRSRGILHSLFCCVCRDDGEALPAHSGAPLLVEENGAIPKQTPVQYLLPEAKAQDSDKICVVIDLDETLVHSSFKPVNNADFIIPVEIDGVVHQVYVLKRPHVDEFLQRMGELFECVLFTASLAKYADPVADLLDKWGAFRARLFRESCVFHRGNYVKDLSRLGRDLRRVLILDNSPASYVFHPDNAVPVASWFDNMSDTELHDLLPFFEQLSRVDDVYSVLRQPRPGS

HEK293 [14] = assay: NOD1 signaling inhibitors, primary screen, cell-based, luminescence, uHTS (AID 1578); format: functional; conditions: Homo sapiens
[15] = cytotoxicity in MIN6 insulinoma cells, dose response, cytotoxicity control, cell-based, mouse insulinoma (AID 2122); format: functional;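 note: confirmatory high-throughput counterscreen run to flag cytotoxic compounds; mouse MIN-6 beta cells carrying an insulin promoter eGFP reporter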
[16] = inhibitors of Ran–importin-beta complex, dose response, biochemical, plate reader, dry powder (AID 493048); parameters: species or system Homo sapiens
[17] = inhibitors of intracellular T. cruzi replication, confirmation, NIH3T3 host cells, beta-gal luminescence (AID 2044); format: functional, cell-based;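 note: intracellular parasites grown in NIH/3T3 mouse fibroblasts as host cells; luminescent beta-galactosidase reporter signal from transgenic T. cruzi replicating inside host cells; inhibitors lower the luminescence signal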
Importin subunit alpha-1 = Importin subunit alpha-1 (Homo sapiens, UniProt P52292); assay: YIC FRET probe signal interference, dose response, counter-screen for RanGTP-importin-beta inhibitor project, biochemical, dry powder samples (AID 493094); format: functional
[18] = cytotoxicity toward NIH3T3 fibroblasts, dose response, counter-screen, cell-based, ATP luminescence, mouse fibroblasts (AID 2010); format: functional;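 note: cells exposed to compound for about 90 hours before reading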
[19] = insulin promoter down-regulators in MIN6 cells, imaging, high-content screening, mouse beta cells (AID 1628); format: functional
[20] = molecular target: Nucleotide-binding oligomerization domain-containing protein 2 (Homo sapiens, UniProt Q9HC29); assay: NOD2 signaling inhibitors, cell-based, luminescence, uHTS, HEK293 (AID 1566); format: functional
Tumor necrosis factor = Tumor necrosis factor (Homo sapiens, UniProt P01375); assay: TNFa-triggered NF-kB activation inhibitors, SAR follow-up, cell-based, revised (AID 2337); format: functional
Chain of Tumor necrosis factor (P01375 whole entry, the tested form may be a part): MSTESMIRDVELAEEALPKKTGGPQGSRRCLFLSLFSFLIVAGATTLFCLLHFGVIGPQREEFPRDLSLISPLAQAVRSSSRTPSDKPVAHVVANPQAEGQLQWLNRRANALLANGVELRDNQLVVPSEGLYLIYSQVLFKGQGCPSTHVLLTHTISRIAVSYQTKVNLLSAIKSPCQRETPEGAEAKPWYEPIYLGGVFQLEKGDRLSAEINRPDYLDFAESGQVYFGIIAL

[21] = molecular target: Nucleotide-binding oligomerization domain-containing protein 1 (Homo sapiens, UniProt Q9Y239); assay: NOD1 signaling inhibitors, SAR follow-up, revised (AID 2333); format: functional
[22] = molecular target: Phosphoethanolamine/phosphocholine phosphatase (Homo sapiens, UniProt Q8TCT1); assay: SAR assay for compounds that inhibit PHOSPHO1. [Related pubchem assays (depositor defined):AID1545, AID1565, AID1574]
Chain of Phosphoethanolamine/phosphocholine phosphatase (Q8TCT1 whole entry): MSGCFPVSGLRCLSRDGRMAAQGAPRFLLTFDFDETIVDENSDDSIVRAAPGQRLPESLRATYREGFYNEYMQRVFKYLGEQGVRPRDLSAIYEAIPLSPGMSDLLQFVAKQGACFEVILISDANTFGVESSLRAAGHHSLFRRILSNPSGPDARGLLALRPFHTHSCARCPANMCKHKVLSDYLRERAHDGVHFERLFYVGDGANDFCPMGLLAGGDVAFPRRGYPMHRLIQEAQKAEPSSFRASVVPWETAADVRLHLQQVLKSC

[23] = molecular target: T6, Mannose-6-phosphate isomerase (Homo sapiens, UniProt P34949); assay: Confirmation of compounds inhibiting phosphomannose isomerase (PMI) via a fluorescence intensity assay using a high concentration of mannose 6-phosphate. [Related pubchem assays (depositor defined):AID1209, AID1220, AID1545, AID1553, AID1620]
T6 sequence (P34949 whole entry): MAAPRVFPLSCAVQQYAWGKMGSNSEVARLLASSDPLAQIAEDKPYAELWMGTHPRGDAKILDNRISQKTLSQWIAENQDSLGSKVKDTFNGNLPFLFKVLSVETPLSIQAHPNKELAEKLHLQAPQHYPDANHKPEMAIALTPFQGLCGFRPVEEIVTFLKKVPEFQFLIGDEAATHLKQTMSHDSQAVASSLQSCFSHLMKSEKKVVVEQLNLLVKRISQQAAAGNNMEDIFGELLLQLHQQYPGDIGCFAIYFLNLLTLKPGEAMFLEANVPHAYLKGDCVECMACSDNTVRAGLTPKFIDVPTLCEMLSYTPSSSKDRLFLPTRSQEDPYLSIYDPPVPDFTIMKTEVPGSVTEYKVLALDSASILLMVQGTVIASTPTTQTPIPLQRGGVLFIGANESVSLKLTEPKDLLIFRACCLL

Hexokinase = molecular target: T7, Hexokinase (Trypanosoma brucei, UniProt Q38C41); assay: Confirmation assay for inhibitors of Trypanosoma brucei hexokinase 1-Analogue-first series. [Related pubchem assays (depositor defined):AID1430, AID1632, AID2516, AID2560, AID2579, AID2600, AID449725, AID492951]; format: functional
T7 sequence (Q38C41 whole entry): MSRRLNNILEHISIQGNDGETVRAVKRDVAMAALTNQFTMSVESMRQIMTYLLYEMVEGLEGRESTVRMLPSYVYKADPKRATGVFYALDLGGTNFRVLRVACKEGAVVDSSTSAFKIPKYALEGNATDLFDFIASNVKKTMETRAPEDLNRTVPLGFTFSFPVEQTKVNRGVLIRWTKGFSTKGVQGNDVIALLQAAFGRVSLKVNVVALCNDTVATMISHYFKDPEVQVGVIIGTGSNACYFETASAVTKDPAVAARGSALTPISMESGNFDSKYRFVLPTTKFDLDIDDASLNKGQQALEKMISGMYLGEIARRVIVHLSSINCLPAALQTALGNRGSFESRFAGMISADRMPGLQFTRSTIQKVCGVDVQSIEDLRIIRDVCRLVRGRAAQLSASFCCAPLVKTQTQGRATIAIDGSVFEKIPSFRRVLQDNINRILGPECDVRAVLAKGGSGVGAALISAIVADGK

[24] = molecular target: T6, Mannose-6-phosphate isomerase; assay: inhibitors of human PMI, primary screen, biochemical, fluorescence intensity, coupled assay (AID 1209)
[25] = molecular target: Glucose-6-phosphate 1-dehydrogenase (Homo sapiens, UniProt P11413); assay: human G6PD enzyme inhibitors, dose response, selectivity assay for P. falciparum G6PD inhibitor project, biochemical, fluorescence (AID 504792); format: functional
[26] = molecular target: T8, Mitochondrial peptide methionine sulfoxide reductase (Bos taurus, UniProt P54149); assay: Absorbance-based biochemical high throughput dose response assay for activators of Methionine sulfoxide reductase A (MsrA).; format: functional
T8 sequence (P54149 whole entry): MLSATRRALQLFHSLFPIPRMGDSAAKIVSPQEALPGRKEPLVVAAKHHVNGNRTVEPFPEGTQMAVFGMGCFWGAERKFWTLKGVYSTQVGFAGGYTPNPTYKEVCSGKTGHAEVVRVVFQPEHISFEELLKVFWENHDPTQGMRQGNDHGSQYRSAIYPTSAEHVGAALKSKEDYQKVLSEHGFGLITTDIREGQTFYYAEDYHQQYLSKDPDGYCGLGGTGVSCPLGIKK

[27] = molecular target: T6, Mannose-6-phosphate isomerase; assay: PMI enzyme inhibitors, confirmation, biochemical, fluorescence intensity (AID 1535)
Phosphomannomutase 2 = Phosphomannomutase 2 (Homo sapiens, UniProt O15305); assay: Counter screen SAR assay for PMM2 inhibitors via a fluorescence intensity assay. [Related pubchem assays (depositor defined):AID1545, AID1574]
Chain of Phosphomannomutase 2 (O15305 whole entry): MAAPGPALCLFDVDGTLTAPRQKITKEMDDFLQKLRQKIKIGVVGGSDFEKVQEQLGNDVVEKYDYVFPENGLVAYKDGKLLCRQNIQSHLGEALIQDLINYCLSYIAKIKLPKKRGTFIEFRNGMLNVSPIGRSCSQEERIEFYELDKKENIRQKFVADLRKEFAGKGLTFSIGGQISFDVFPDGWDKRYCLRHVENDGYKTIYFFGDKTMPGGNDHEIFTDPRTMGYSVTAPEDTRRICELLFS

[28] = molecular target: DNA dC->dU-editing enzyme APOBEC-3G (Homo sapiens, UniProt Q9HC16); assay: Dose Response confirmation of small molecule APOBEC3G DNA Deaminase Inhibitors via a fluorescence-based single-stranded DNA deaminase assay. [Related pubchem assays (depositor defined):AID493012, AID493028]; format: functional
Chain of DNA dC->dU-editing enzyme APOBEC-3G (Q9HC16 whole entry): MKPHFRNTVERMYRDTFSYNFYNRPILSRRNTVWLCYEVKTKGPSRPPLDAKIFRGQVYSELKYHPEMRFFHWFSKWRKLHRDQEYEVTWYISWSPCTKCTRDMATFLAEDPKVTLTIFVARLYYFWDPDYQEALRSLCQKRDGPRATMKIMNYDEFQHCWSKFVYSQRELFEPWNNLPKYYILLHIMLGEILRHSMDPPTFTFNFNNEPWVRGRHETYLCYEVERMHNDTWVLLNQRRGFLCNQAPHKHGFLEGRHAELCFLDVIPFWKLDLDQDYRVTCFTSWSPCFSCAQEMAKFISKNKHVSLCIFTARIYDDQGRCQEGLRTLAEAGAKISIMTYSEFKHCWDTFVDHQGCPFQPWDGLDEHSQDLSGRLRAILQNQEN

Large T antigen = Large T antigen (Simian virus 40, UniProt P03070); format: functional, Betapolyomavirus macacae;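 note: Confirmatory-stage PubChem screen for compounds that inhibit SV40 T antigen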
[29] = molecular target: T6, Mannose-6-phosphate isomerase; assay: human PMI inhibitors, high substrate, primary screen, biochemical, fluorescence intensity, high mannose 6-phosphate (AID 1220)
[30] = molecular target: Eukaryotic translation initiation factor 4E (Mus musculus, UniProt P63073); assay: eIF4E–eIF4G protein interaction inhibitors, dose response, biochemical, TR-FRET (AID 855); format: functional;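 note: potency for disrupting eIF4E binding to eIF4GI seen as loss of FRET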

CSc1nnc(-c2cc3c(s2)-c2ccccc2CC3)o1
inactive: IC50 [1] > 100 µM | EC50 (cells) > 67.5 µM | IC50 (Saccharomyces cerevisiae) > 100 µM | EC50 [2] > 67.5 µM

O=C(Nc1ccc2nc(-c3ccco3)c(-c3ccco3)nc2c1)Nc1cccc2ccccc12
active: IC50 [3] 1.26 µM

COc1ccc(OC)c(S(=O)(=O)N(C(C)=O)c2ccc3oc(=O)sc3c2)c1
inactive: IC50 [4] > 100 µM | IC50 [5] > 100 µM

CC(Oc1ccccc1)C(=O)Nc1nnc(-c2ccc3ccccc3c2)o1 (configuration not stated)
active: EC50 [6] 2.7 µM

NC(=NOS(=O)(=O)c1ccc2ccccc2c1)c1ccncc1
inactive: EC50 [7] > 100 µM

COc1ccc2cc3c(N)nn(C(=O)c4ccc(Cl)c([N+](=O)[O-])c4)c3nc2c1
inactive: IC50 (HEK293 [8]) > 20 µM
active: IC50 (HEK293 [9]) 1.71 µM | IC50 [10] 28.7 µM | IC50 (HEK293 [11]) 2.29 µM | IC50 [12] 16.1 µM | IC50 [13] 1.72 µM | EC50 (HEK293 [14]) 3.5 µM

CCOCCCn1c(=N)c(C(=O)NCc2ccc3c(c2)OCO3)cc2c(=O)n3cccc(C)c3nc21
> 60 µM (not active): EC50 [18]
active: IC50 [15] 5.17 µM | AC50 [16] 227 µM | EC50 [17] 1.27 µM | AC50 (Importin subunit alpha-1) 135 µM | IC50 [19] 1.54 µM

O=C(CSc1nc2scc(-c3ccccc3)c2c(=O)[nH]1)Nc1ccccc1
active: EC50 [20] 0.95 µM | IC50 (Tumor necrosis factor) 1.96 µM | IC50 [21] 2.83 µM

CN(C)S(=O)(=O)c1cccc(-n2sc3ccccc3c2=O)c1
active: IC50 [22] 495 nM and 457 nM | IC50 [23] 16.4 µM | IC50 (Hexokinase) 7.63 µM | IC50 [24] 5.25 µM | IC50 [25] 12.4 µM | IC50 [27] 2.79 µM and 7.06 µM | IC50 (Phosphomannomutase 2) 13.5 µM and 12.9 µM | IC50 [28] 9.11 µM | IC50 (Large T antigen) 13.3 µM | IC50 [29] 11.7 µM | IC50 [30] 13 µM
inactive: EC50 [26] > 104 µM
